Source: patent US20150283152A1, “Levonorgestrel-Only-Composition For Optimized Oral Contraception With Defined Levonorgestrel Content, Dosage Regimen And Pharmaceutical Preparation” (NAARI AG, priority 2012, published 2015)

Legend:
New Zealand-rabbits = assay: Pre-ovulatory repeated oral levonorgestrel, rate of fertilized eggs in rabbits (ovulation induced by PMSG/hCG); type: in vivo, rabbit; conditions: for % fertilized (cleaved) eggs: control 90.6
Text: On the last day of LNG-administration, the ovulation was “forced” by intravenous (i.v.) injection of human chorionic gonadotropin (hCG). […] [table]

[1] = tested on: female paired Wistar-rats; assay: Post-ovulatory subcutaneous levonorgestrel, fertility of female paired rats; type: in vivo, rat
Method: Whereas 20 mg/kg bodyweight (b.w.). […] [table]

[2] = tested on: immature male Wistar-rats; assay: Weight of gonads in immature male rats (antigonadotrophic effect); type: in vivo, rat; conditions: final control 873.5 ± 62.5, p < 0.05
Text: The influence of levonorgestrel on the secretion of gonadotrophins from the pituitary can be estimated by recording the dose-effect relationships in reducing the weight of the gonads of immature male rats. [table]

Luteinizing Hormone (LH) = assay: Serum levels of Luteinizing Hormone in male castrated rats (radioimmunoassay); type: in vivo, rat; conditions: gonadectomized control 127.0 ± 11.0, p < 0.05
women = conditions: without estrogen; cited from earlier work
[3] = Martinez F et al. 2012; cited from earlier work
[4] = total dosage 0.35 mg/animal p.o. over 3 days
[5] = total dosage 1.75 mg/animal p.o. over 3 days
[6] = s.c. days 1-4 p.i., total dose 0.2 mg/animal/4 days
[7] = s.c. days 1-4 p.i., total dose 2.0 mg/animal/4 days
[8] = s.c. once Day 1 p.i., total dose 4.0 mg/animal

Structure (SMILES): C#C[C@]1(O)CC[C@H]2[C@@H]3CCC4=CC(=O)CC[C@@H]4[C@H]3CC[C@@]21CC [levonorgestrel]
- Total no. of eggs vs. total no. of fertilized (cleaved) eggs (New Zealand-rabbits; [4]): 92/78
- % fertilized (cleaved) eggs (New Zealand-rabbits; [4]): 84.8%
- Total no. of eggs vs. total no. of fertilized (cleaved) eggs (New Zealand-rabbits; [5]): 81/49
- % fertilized (cleaved) eggs (New Zealand-rabbits; [5]): 60.5%
- % fertilized (cleaved) eggs (New Zealand-rabbits; total dosage 5.25 mg/animal p.o. over 3 days): 54.5%
- No. of treated animals vs. no. of intact pregnancies [1, 6]: 10/9
- Pregnancy inhibition (%) [1, 6]: 10%
- No. of treated animals vs. no. of intact pregnancies [1, 7]: 10/0
- Pregnancy inhibition (%) [1, 7]: 100%
- No. of treated animals vs. no. of intact pregnancies [1, 8]: 12/12
- Pregnancy inhibition (%) [1, 8]: 0%
- Gonadal weight/mg Mean ± (S.E.M.) ([2]; total dose 0.14 mg/animal over 14 d s.c.): 579.7 ± 44.7 mg
- Gonadal weight/mg Mean ± (S.E.M.) ([2]; total dose 0.42 mg/animal over 14 d s.c.): 385.7 ± 74.3 mg
- Gonadal weight/mg Mean ± (S.E.M.) ([2]; total dose 1.40 mg/animal over 14 d s.c.): 180.8 ± 105.5 mg
- Luteinizing Hormone ng/mL serum (Luteinizing Hormone (LH); total dose 0.14 mg/animal/14 d s.c.): 68.4 ± 15.4 ng/mL serum
- Luteinizing Hormone ng/mL serum (Luteinizing Hormone (LH); total dose 1.40 mg/animal/14 d s.c.): 2.2 ± 0.3 ng/mL serum
- daily dosage leading to non-acceptable bleeding irregularities (women): over 0.125 mg
- risk of venous thromboembolism (VTE) [3]: currently the safest progestin
